Measurements as given in US9125805B2, “Stable formulations for parenteral injection of small molecule drugs” (Xeris Pharmaceuticals, Inc., priority 2012, dated 2015).
≈ marks a conversion by molar mass, not a printed value. Like-named read-outs stand apart in the source and are kept apart here. One block for each compound: values may come before it.

Assays:
physchem = conditions: organic solvent or mixture, thermodynamic from solid

Compound: CC(=O)Oc1ccccc1C(=O)O [Acetylsalicylic acid]
solubility (physchem; Solubility (class)): 30 to 100 mg/mL (≈ 167 to 555 mM)

Compound: O=C(O)c1cc(=O)c2c(OCC(O)COc3cccc4oc(C(=O)O)cc(=O)c34)cccc2o1 [Cromolyn sodium]
solubility (physchem; Solubility (class)): 30 to 100 mg/mL

Compound: Albuterol sulfate
Solubility (class) (solvent 70:30 (v/v) DMSO:NMP): Slightly soluble
solubility (solvent 70:30 (v/v) DMSO:NMP): 5 mg/mL
Solubility (class) (solvent Benzyl Benzoate): Practically insoluble
solubility (solvent Benzyl Benzoate): <0.1 mg/mL
Solubility (class) (solvent DMSO): Slightly soluble
solubility (solvent DMSO): 5 mg/mL
Solubility (class) (solvent NMP): Practically insoluble
solubility (solvent NMP): <0.1 mg/mL
Solubility (class) (solvent PEG 300): Practically insoluble
solubility (solvent PEG 300): <0.1 mg/mL
Solubility (class) (solvent Triacetin): Practically insoluble
solubility (solvent Triacetin): <0.1 mg/mL

Now from value to compound:

Solubility (class) (solvent 70:30 (v/v) DMSO:NMP): Freely soluble
Solubility (class) (solvent Benzyl Benzoate): Slightly soluble
Solubility (class) (solvent DMSO): Freely soluble
Solubility (class) (solvent NMP): Freely soluble
Solubility (class) (solvent Triacetin): Slightly soluble
solubility (physchem; Solubility (class), solvent PEG 300): 30 to 100 mg/mL (≈ 98 to 327 mM)
solubility (physchem; Solubility, solvent 70:30 (v/v) DMSO:NMP): 850 mg/mL (≈ 2780 mM)
solubility (physchem; Solubility, solvent Benzyl Benzoate): 5 mg/mL (≈ 16.3 mM)
solubility (physchem; Solubility, solvent DMSO): 900 mg/mL (≈ 2940 mM)
solubility (physchem; Solubility, solvent NMP): 800 mg/mL (≈ 2610 mM)
solubility (physchem; Solubility, solvent PEG 300): 50 mg/mL (≈ 163 mM)
solubility (physchem; Solubility, solvent Triacetin): 5 mg/mL (≈ 16.3 mM)
Compound: OC(Cn1cncn1)(Cn1cncn1)c1ccc(F)cc1F [Fluconazole]

solubility (physchem; Solubility (class)): 30 to 100 mg/mL (≈ 36.5 to 122 mM)
Compound: CO[C@H]1/C=C/O[C@@]2(C)Oc3c(C)c(O)c4c(O)c(c(/C=N/N5CCN(C)CC5)c(O)c4c3C2=O)NC(=O)/C(C)=C\C=C\[C@H](C)[C@H](O)[C@@H](C)[C@@H](O)[C@@H](C)[C@H](OC(C)=O)[C@@H]1C [Rifampicin]

solubility (physchem; Solubility): < 0.1 mg/mL
Compound: NC[C@H]1O[C@H](O[C@H]2[C@H](O)[C@@H](O[C@H]3O[C@H](CO)[C@@H](O)[C@H](N)[C@H]3O)[C@H](N)C[C@@H]2N)[C@H](N)C[C@@H]1O [Tobramycin]
